The text below walks through data of the supplement of paper PMC10307832.

Holding throughout (test): relative viability (nuclei count vs DMSO), 5 days (fraction); higher = more cells survive
Compound in one test: C(C(=O)C(=O)O)Br [Bromopyruvate]
In a few lines: (§1)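 Hoechst staining, done together with fixation and permeabilisation, marked nuclei for 4× imaging and MetaXpress counting. This followed 5 days without medium change after lung cancer cell lines, kept overnight at 37 °C in 1536-well plates, were pinned with five library-drug doses (not always all listed) spaced by √10 on vehicle-anchored plates. Viability is the ratio of treated-well to vehicle-well nuclei, expressed as a median across plates. Plates passed only at control CV below 25% with at least one doubling.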

Compound in a further test: CC(O)(CS(=O)(=O)c1ccc(F)cc1)C(=O)Nc1ccc(C#N)c(C(F)(F)F)c1 [Bicalutamide]
A digest of the protocol: as §1

Compound in test [1]: C(C(=O)C(=O)O)Br [Bromopyruvate] + Cc1nc(NC(=O)N2CCC[C@H]2C(N)=O)sc1-c1ccnc(C(C)(C)C(F)(F)F)c1 [Alpelisib] (partner 2 µM)
In a few lines: (§2)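 Lung cancer cell lines in 1536-well plates got either a single drug or a fixed anchor-drug dose together with five library-drug doses (not always all listed) in √10 steps, by pin tool, on the day after seeding. Nuclei were counted after 5 days, and relative viability is the treated-to-vehicle ratio of nuclei counts. Values are medians of duplicate plates.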

Compound in test [2]: CC(O)(CS(=O)(=O)c1ccc(F)cc1)C(=O)Nc1ccc(C#N)c(C(F)(F)F)c1 [Bicalutamide] + Nc1nc2[nH]cc(CCc3ccc(C(=O)N[C@@H](CCC(=O)O)C(=O)O)cc3)c2c(=O)[nH]1 [Pemetrexed] (partner 0.2 µM)
A digest of the protocol:
as §2

As to EKVX, the relative viability with Bromopyruvate (1 µM) is 0.988; with Bromopyruvate (3.162 µM) it was 0.973; with Bromopyruvate (10 µM), 1.06; with Bromopyruvate (31.62 µM) it was 1.01; in the test with Bromopyruvate (100 µM), 0.969; with Bicalutamide (0.08 µM), 1.02. In addition, the relative viability in the test with Bicalutamide (0.253 µM) worked out at 0.984; with Bicalutamide (0.8 µM), 1.09; with Bicalutamide (2.53 µM), 0.914; in test [1] (first compound 1 µM), 0.875; in test [1] (first compound 3.162 µM), 0.815; in test [1] (first compound 10 µM), 1.01. Besides, the relative viability came to 0.86 in test [1] (first compound 31.62 µM); 0.943 in test [1] (first compound 100 µM); 0.378 in test [2] (first compound 0.08 µM); 0.335 in test [2] (first compound 0.253 µM); 0.392 in test [2] (first compound 0.8 µM); 0.391 in test [2] (first compound 2.53 µM).

On to EMC-BAC-2, for which the relative viability in the test with Bromopyruvate (1 µM) came to 0.982; with Bromopyruvate (3.162 µM), 0.933; in the test with Bromopyruvate (10 µM) it was 0.986; in the test with Bromopyruvate (31.62 µM) it was 0.804; with Bromopyruvate (100 µM), 1.01; with Bicalutamide (0.08 µM) it was 1.03. In addition, the relative viability with Bicalutamide (0.253 µM) was determined as 0.894; with Bicalutamide (0.8 µM), 1.05; with Bicalutamide (2.53 µM) it was 0.822; in test [1] (first compound 1 µM), 0.658; in test [1] (first compound 3.162 µM) it was 0.771; in test [1] (first compound 10 µM), 0.897. Moreover, the relative viability came to 0.747 in test [1] (first compound 31.62 µM); 0.826 in test [1] (first compound 100 µM); 0.447 in test [2] (first compound 0.08 µM); 0.41 in test [2] (first compound 0.253 µM); 0.489 in test [2] (first compound 0.8 µM); 0.444 in test [2] (first compound 2.53 µM).

On to EPLC-272H, for which the relative viability was 1.01 with Bromopyruvate (1 µM); 1.03 in the test with Bromopyruvate (3.162 µM); 1.11 with Bromopyruvate (10 µM); 0.952 in the test with Bromopyruvate (31.62 µM); 1.04 in the test with Bromopyruvate (100 µM); 0.996 with Bicalutamide (0.08 µM). Besides, the relative viability with Bicalutamide (0.253 µM) turned out to be 0.798; with Bicalutamide (0.8 µM) it was 1.06; with Bicalutamide (2.53 µM) it was 0.908; in test [1] (first compound 1 µM), 1.05; in test [1] (first compound 3.162 µM), 1.17; in test [1] (first compound 10 µM), 0.941. For the same cell line, the relative viability was 0.806 in test [1] (first compound 31.62 µM); 1.04 in test [1] (first compound 100 µM); 0.424 in test [2] (first compound 0.08 µM); 0.322 in test [2] (first compound 0.253 µM); 0.359 in test [2] (first compound 0.8 µM); 0.207 in test [2] (first compound 2.53 µM).

For H3255, the relative viability with Bromopyruvate (1 µM) stood at 0.953; with Bromopyruvate (3.162 µM), 0.999; with Bromopyruvate (10 µM), 1.02; with Bromopyruvate (31.62 µM) it was 1.01; with Bromopyruvate (100 µM), 1.12; with Bicalutamide (0.08 µM), 0.969. The relative viability with Bicalutamide (0.253 µM) was found to be 0.896; with Bicalutamide (0.8 µM), 1.02; with Bicalutamide (2.53 µM), 0.907; in test [1] (first compound 1 µM), 0.765; in test [1] (first compound 3.162 µM), 0.647; in test [1] (first compound 10 µM), 0.86. Further, the relative viability in test [1] (first compound 31.62 µM) was found to be 0.856; in test [1] (first compound 100 µM), 0.783; in test [2] (first compound 0.08 µM), 0.584; in test [2] (first compound 0.253 µM), 0.536; in test [2] (first compound 0.8 µM), 0.62; in test [2] (first compound 2.53 µM), 0.571.

For the cell line HARA, the relative viability in the test with Bromopyruvate (1 µM) was 1.01; with Bromopyruvate (3.162 µM), 1.1; with Bromopyruvate (10 µM) it was 0.997; with Bromopyruvate (31.62 µM) it was 0.983; with Bromopyruvate (100 µM), 1.05; with Bicalutamide (0.08 µM), 1.02. Besides, the relative viability with Bicalutamide (0.253 µM) amounted to 0.802; with Bicalutamide (0.8 µM) it was 1.01; with Bicalutamide (2.53 µM), 0.953; in test [1] (first compound 1 µM), 0.792; in test [1] (first compound 3.162 µM), 0.868; in test [1] (first compound 10 µM), 1.04. Moreover, the relative viability is 0.802 in test [1] (first compound 31.62 µM); 0.858 in test [1] (first compound 100 µM); 0.233 in test [2] (first compound 0.08 µM); 0.299 in test [2] (first compound 0.8 µM); 0.251 in test [2] (first compound 2.53 µM).

In the case of HCC-15, the relative viability in the test with Bromopyruvate (1 µM) is 1.03; with Bromopyruvate (3.162 µM), 1.06; with Bromopyruvate (10 µM), 1.08; with Bromopyruvate (31.62 µM), 0.981; with Bromopyruvate (100 µM) it was 0.957; with Bicalutamide (0.08 µM), 1.02. In addition, the relative viability stood at 0.973 with Bicalutamide (0.253 µM); 1.15 in the test with Bicalutamide (0.8 µM); 1 with Bicalutamide (2.53 µM); 0.929 in test [1] (first compound 1 µM); 0.947 in test [1] (first compound 3.162 µM); 0.962 in test [1] (first compound 10 µM). Further, the relative viability in test [1] (first compound 31.62 µM) came out at 0.852; in test [1] (first compound 100 µM) it was 0.8; in test [2] (first compound 0.08 µM), 0.23; in test [2] (first compound 0.253 µM), 0.231; in test [2] (first compound 0.8 µM), 0.221; in test [2] (first compound 2.53 µM), 0.223.

In the case of HCC-44, the relative viability worked out at 1.02 with Bromopyruvate (1 µM); 0.986 with Bromopyruvate (3.162 µM); 0.992 with Bromopyruvate (10 µM); 1.01 in the test with Bromopyruvate (31.62 µM); 0.985 in the test with Bromopyruvate (100 µM); 1.03 in the test with Bicalutamide (0.08 µM). Moreover, the relative viability with Bicalutamide (0.253 µM) was 0.998; in the test with Bicalutamide (0.8 µM) it was 0.981; with Bicalutamide (2.53 µM), 1.01; in test [1] (first compound 1 µM), 0.781; in test [1] (first compound 3.162 µM), 0.83; in test [1] (first compound 10 µM), 0.859. The relative viability in test [1] (first compound 31.62 µM) was found to be 0.916; in test [1] (first compound 100 µM), 0.863; in test [2] (first compound 0.08 µM) it was 0.675; in test [2] (first compound 0.253 µM), 0.707; in test [2] (first compound 0.8 µM), 0.637; in test [2] (first compound 2.53 µM), 0.688.

Regarding HCC-78, the relative viability with Bromopyruvate (1 µM) is 1.08; in the test with Bromopyruvate (3.162 µM) it was 0.971; in the test with Bromopyruvate (10 µM), 1.02; in the test with Bromopyruvate (31.62 µM), 0.94; with Bromopyruvate (100 µM), 0.993; with Bicalutamide (0.08 µM), 0.941. Also, the relative viability with Bicalutamide (0.253 µM) was 0.991; with Bicalutamide (0.8 µM), 1.22; with Bicalutamide (2.53 µM), 0.985; in test [1] (first compound 1 µM) it was 0.305; in test [1] (first compound 3.162 µM), 0.354; in test [1] (first compound 10 µM), 0.421. Moreover, the relative viability in test [1] (first compound 31.62 µM) was determined as 0.452; in test [1] (first compound 100 µM), 0.373; in test [2] (first compound 0.08 µM) it was 0.947; in test [2] (first compound 0.253 µM), 0.708; in test [2] (first compound 0.8 µM) it was 0.962; in test [2] (first compound 2.53 µM), 0.939.
